In patent publication US20230172201A1, “Use of 4-Phenylbutyric Acid and/or 3-Phenylbutyric Acid and/or 2-Phenylbutyric Acid in Preventing and Treating Cryptogamic Diseases” (Institut National de Recherche Pour L'Agriculture, …, priority 2020, published 2023):
Like-named read-outs stand apart in the source and are kept apart here.

Tests used:
[1] = tested on: Botrytis cinerea (BMM strain); assay: Radial growth of the mycelium on solid PDA medium
Protocol: The BMM strain of the fungus B. cinerea was cultured for about 10 days on solid PDA medium (24 g/L of PDB and 15 g/L of agar) in the dark and at a temperature of 22° C. A cylinder of agar comprising the mycelium at its top was then cut out with a sterile punch with a diameter of 6 mm, and was then deposited at the center of round Petri dishes (9 cm diameter) containing PDA medium supplemented or not with 4-PBA. 4-PBA, prepared extemporaneously, was added directly to the molten culture medium to final concentrations of 1, 2 and 5 mM. Controls were prepared by adding a volume of sterile water equivalent to the highest concentration of 4-PBA. The dishes were kept in the dark at a temperature of 22° C. throughout the experiment. […] For this, the following linear regression was used: Degree of inhibition (%)=f(ln[4-PBA]).

[2] = tested on: Colletrotrichum lindemuthianum; assay: Radial growth of the mycelium; type: cell-based
[3] = tested on: Alternaria brassicicola; assay: Radial growth of the mycelium; type: cell-based; conditions: 240 h; for inhibition at 1000 µM / inhibition at 2000 µM / inhibition at 5000 µM: time 10 days
[4] = tested on: Botrytis cinerea (BMM strain); assay: Mycelial development in liquid medium, absorbance at 600 nm (nephelometry); type: cell-based; conditions: 1 mM
[5] = tested on: Fusarium verticilloides; assay: Radial growth of the mycelium; type: cell-based; conditions: 288 h
[6] = tested on: Cercospora beticola; assay: Radial growth of the mycelium; type: cell-based; conditions: 528 h
[7] = tested on: Botrytis cinerea (BMM strain); assay: Protection of grapevine foliar disks against gray rot, B. cinerea spore inoculum with or without 4-PBA; type: in vivo; conditions: grapevine cv. Gamay foliar disks; 4-PBA 1 mM; 5·10^4 spores/mL; 3 days
Protocol: Material and Methods. A commercial variety of grapevine (Vitis […], cultivar Gamay) was grown in a greenhouse for 6 weeks. […] The inoculum was prepared as mentioned above for the experiments carried out with A. thaliana. A volume of 6 μL was deposited on each disk. The infected disks were incubated as for the experiments carried out on foliar disks of tomato. The disease symptoms were photographed and quantified 3 days after infection from the distribution of the lesions as a function of their diameter and by measuring the largest diameter of the lesions. […] The results presented in FIG. 4 correspond to the mean values±standard deviation.

[8] = tested on: Botrytis cinerea (BMM strain); assay: Protection of tomato foliar disks against gray rot, B. cinerea spore inoculum with or without compound; type: in vivo; conditions: for proportion of lesions larger than 4 mm in diameter: tomato Moneymaker foliar disks, 3 days; for median ratio of gDNA of the fungus to that of the plant, times lower than fungus alone / decrease of the average diameter of the lesions: tomato Moneymaker
[9] = tested on: Phanerochaete chrysosporium; assay: Radial growth of the mycelium; type: cell-based
[10] = tested on: Fusarium oxysporum f. sp melonis; assay: Radial growth of the mycelium; type: cell-based; conditions: 288 h
[11] = tested on: Arabidopsis thaliana (ecotype Col-0); assay: Effect of watering with 4-PBA on vegetative growth (rosette weight); type: in vivo; conditions: watering with 1 mM once a week for 4 weeks
Protocol: Material and Methods. The seeds of A. thaliana (ecotype Col-0) were sown in individual pots directly on compost without a prior step of stratification. […] These plants were then separated into 2 batches with 12 plants each, one watered with distilled water, the other with a solution of 4-PBA at a final concentration of 1 mM. In practice, watering took place once a week on a fixed day and at a fixed time, for 4 consecutive weeks (FIG. 5a). […] The rosette of each of the plantlets was then weighed to evaluate the effect of watering with 4-PBA on vegetative growth.

[12] = tested on: Arabidopsis thaliana (ecotype Col-0); assay: Phytotoxicity after leaf infiltration; type: in vivo; conditions: 0.5 or 1 mM; 48 hours after infiltration
Protocol: Material and Methods. Seeds of A. thaliana (ecotype Col-0) were sown in individual pots directly on compost without a prior step of stratification. […] The experiment was repeated 3 times. Each experiment included about ten plants. Six leaves representative of the 3 experiments were photographed 48 hours after infiltration (FIG. 5c).

[13] = tested on: Leptosphaeria maculans; assay: Radial growth of the mycelium; type: cell-based; conditions: Plenodomus lingam, 432 h, time 18 days
[14] = tested on: Sclerotinia sclerotorum; assay: Radial growth of the mycelium; type: cell-based; conditions: 168 h
[15] = tested on: Phytophthora capsici; assay: Radial growth of the oomycete; type: cell-based
[16] = tested on: Zymoseptoria tritici; assay: Growth of the primary hypha on PG solid medium; type: cell-based
[17] = tested on: Magnaporthe oryzae; assay: microbe, parasite or virus in culture; type: cell-based; conditions: Pyricularia oryzae, 336 h
[18] = tested on: Helmintosporium teres; assay: Radial growth of the mycelium; type: cell-based
[19] = tested on: Botrytis cinerea (BMM strain); assay: Protection of thale cress leaves against gray rot, B. cinerea spore inoculum with or without 4-PBA; type: in vivo; conditions: A. thaliana Col-0 leaves, 4-PBA 1 mM in inoculum
[20] = tested on: Botrytis cinerea (BMM strain); assay: Germination of the spores and growth of the primary hypha in liquid medium; type: cell-based; conditions: 16 to 18 hours
[21] = tested on: Alternaria solani; assay: Radial growth of the mycelium; type: cell-based; conditions: 528 h
[22] = tested on: Phytophthora parasitica; assay: Radial growth of the oomycete; type: cell-based
[23] = tested on: Fusarium graminearum; assay: microbe, parasite or virus in culture; type: cell-based
[24] = lowest concentration tested (1 mM)
[25] = time 12 days (day control colonized the whole Petri dish)
[26] = time 22 days (day control colonized the whole Petri dish)
[27] = radial growth EC50 compared with B. cinerea

**Q.** What does the source list for `O=C(O)CCCc1ccccc1` [4-PBA, 4-Phenylbutyric acid]?
**A.** persistence of the active principle ([1]; 5 mM in culture medium): up to 23 days; radial growth of the mycelium ([1]; 1, 2 and 5 mM in PDA, 26 days): dose-dependent slowing; EC50 ([1]; Botrytis cinerea, read-out: EC50 (median inhibitory concentration, radial growth halved)): 2000 to 3000 µM; inhibition at 1000 µM ([2]; 288 h, 1 mM 4-PBA, time 12 days): 67%; inhibition at 2000 µM ([2]; 288 h, 2 mM 4-PBA, time 12 days): 75%; inhibition at 5000 µM ([2]; 288 h, 5 mM 4-PBA, time 12 days): 97%; EC50 ([2]; 288 h, time 12 days (day control colonized the whole Petri dish)): 450 µM; persistence of the molecule [2, 24]: ≤ 30 days; inhibition at 1000 µM ([3]; strain 1, 1 mM 4-PBA): 70%; inhibition at 2000 µM ([3]; strain 1, 2 mM 4-PBA): 88%; inhibition at 5000 µM ([3]; strain 1, 5 mM 4-PBA): 97%; EC50 ([3]; strain 1, time 10 days): 260 µM; inhibition at 1000 µM ([3]; strain 1509, 1 mM 4-PBA): 58%; inhibition at 2000 µM ([3]; strain 1509, 2 mM 4-PBA): 81%; inhibition at 5000 µM ([3]; strain 1509, 5 mM 4-PBA): 96%; EC50 ([3]; strain 1509, time 10 days): 640 µM; repression of mycelial growth measured by nephelometry ([4]; 4 days, Example 3): 94%; inhibition at 1000 µM ([4]; Botrytis cinerea, 96 h, incubation for 4 days, Example 4, read-out: degree of inhibition): 97%; inhibition at 1000 µM ([5]; 1 mM 4-PBA, time 12 days): 66%; inhibition at 2000 µM ([5]; 2 mM 4-PBA, time 12 days): 74%; inhibition at 5000 µM ([5]; 5 mM 4-PBA, time 12 days): 98%; EC50 [5, 25]: 500 µM; inhibition at 1000 µM ([6]; 1 mM 4-PBA, time 22 days): 0%; inhibition at 2000 µM ([6]; 2 mM 4-PBA, time 22 days): 13%; inhibition at 5000 µM ([6]; 5 mM 4-PBA, time 22 days): 67%; EC50 [6, 26]: 2810 µM; decrease in the average diameter of the lesions [7]: ~75%; average diameters of the foliar lesions as a function of concentration ([8]; tomato M82 foliar disks, 0.5 to 2.5 mM): gradual decrease; efficacy of protection compared with the Moneymaker variety ([8]; tomato M82 foliar disks, 4-PBA 1 mM): equivalent efficacy; proportion of lesions larger than 4 mm in diameter ([8]; 4-PBA 1 mM, 5·10^4 spores/mL): 15%; proportion of lesions larger than 4 mm in diameter ([8]; 4-PBA 1 mM, 5·10^5 spores/mL): 23%; median ratio of gDNA of the fungus to that of the plant, times lower than fungus alone ([8]; 4-PBA 1 mM, 5·1^04 spores/mL): 40 times; median ratio of gDNA of the fungus to that of the plant, times lower than fungus alone ([8]; 4-PBA 1 mM, 5·10^5 spores/mL): 10 times; decrease of the average diameter of the lesions ([8]; 4-PBA 1 mM, highest concentration of spores (5·10^5 spores/mL)): 58%; decrease of the average diameter of the lesions ([8]; 4-PBA 1 mM, lowest concentration of spores (5·10^4 spores/mL)): 68%; time for the fungus to overcome supplementation of the culture medium ([9]; 4-PBA 1 mM): 14 days; inhibition at 1000 µM ([9]; Phanerodontia chrysosporium, 96 h, 1 mM 4-PBA, time 4 days): 99%; inhibition at 2000 µM ([9]; Phanerodontia chrysosporium, 96 h, 2 mM 4-PBA, time 4 days): 100%; inhibition at 5000 µM ([9]; Phanerodontia chrysosporium, 96 h, 5 mM 4-PBA, time 4 days): 100%; development at higher concentrations ([9]; final concentrations of 2 and 5 mM): unable to develop; inhibition at 1000 µM ([10]; 1 mM 4-PBA, time 12 days): 68%; inhibition at 2000 µM ([10]; 2 mM 4-PBA, time 12 days): 80%; inhibition at 5000 µM ([10]; 5 mM 4-PBA, time 12 days): 99%; EC50 [10, 25]: 400 µM; effect on the aerial biomass [11]: no effect; macroscopic symptoms after infiltration of the leaves [12]: absence of macroscopic symptoms; inhibition at 1000 µM ([13]; 1 mM 4-PBA): 73%; inhibition at 2000 µM ([13]; 2 mM 4-PBA): 99%; inhibition at 5000 µM ([13]; 5 mM 4-PBA): 99%; inhibition at 1000 µM ([14]; 1 mM 4-PBA, time 7 days): 0%; inhibition at 2000 µM ([14]; 2 mM 4-PBA, time 7 days): 73%; inhibition at 5000 µM ([14]; 5 mM 4-PBA, time 7 days): 100%; EC50 ([14]; time 7 days (day control colonized the whole Petri dish)): 1900 µM; growth at higher concentrations ([15]; 2 and 5 mM): complete absence of growth for 20 days; inhibition at 1000 µM ([15]; Phytophthora capsici, 216 h, 1 mM 4-PBA, time 9 days): 90%; inhibition at 2000 µM ([15]; Phytophthora capsici, 216 h, 2 mM 4-PBA, time 9 days): 100%; inhibition at 5000 µM ([15]; Phytophthora capsici, 216 h, 5 mM 4-PBA, time 9 days): 100%; EC50 ([16]; 48 h, isolate 14-FT-A1, 48 hours): 245 µg/mL; EC50 ([16]; 48 h, isolate 14-FT-A1, 48 hours, read-out: EC50): 1320 µM; EC50 ([16]; 48 h, isolate 37-30, 48 hours): 163 µg/mL; EC50 ([16]; 48 h, isolate 37-30, 48 hours, read-out: EC50): 874 µM; EC50 ([16]; 48 h, isolate 37-41, 48 hours): 164 µg/mL; EC50 ([16]; 48 h, isolate 37-41, 48 hours, read-out: EC50): 880 µM; EC50 ([16]; 48 h, isolate 11183, 48 hours): 196 µg/mL; EC50 ([16]; 48 h, isolate 11183, 48 hours, read-out: EC50): 1050 µM; EC50 ([16]; 48 h, isolate IPO-323, 48 hours): 122 µg/mL; EC50 ([16]; 48 h, isolate IPO-323, 48 hours, read-out: EC50): 657 µM; EC50 ([16]; 48 h, isolate ST5548, 48 hours): 246 µg/mL; EC50 ([16]; 48 h, isolate ST5548, 48 hours, read-out: EC50): 1320 µM; EC50 ([16]; 48 h, isolate STDP-047915, 48 hours): 212 µg/mL; EC50 ([16]; 48 h, isolate STDP-047915, 48 hours, read-out: EC50): 1140 µM; EC50 ([16]; six isolates resistant to conventional fungicides, read-out: EC50 calculated for all of these isolates, order of magnitude): ~1000 µM; EC50 [17]: 1330 µM; inhibition at 1000 µM [17]: 39%; inhibition at 2000 µM [17]: 66%; inhibition at 5000 µM [17]: 100%; inhibition at 1000 µM ([18]; 240 h, 1 mM 4-PBA, time 10 days): 94%; inhibition at 2000 µM ([18]; 240 h, 2 mM 4-PBA, time 10 days): 97%; inhibition at 5000 µM ([18]; 240 h, 5 mM 4-PBA, time 10 days): 100%; EC50 ([18]; 240 h, time 10 days (day control colonized the whole Petri dish)): 0.00665 µM; persistence of the molecule [18, 24]: ≤ 30 days; EC50 times lower than that of B. cinerea [18, 27]: 450 000 times; leaves that did not display symptoms ([19]; 5·10^4 spores/mL, 4 days after inoculation): 37%; proportion of lesions whose diameter was greater than 4 mm ([19]; 4 days after inoculation): 23%; average diameter of the lesions divided by ([19]; 4 days, relative to fungus alone): 2.2 times; ratio of gDNA of the fungus to that of the plant, median decrease by a factor ([19]; quantitative PCR): 10; germination rate of the spores ([20]; 4-PBA 0.1 mM): 100%; inhibition at 1000 µM ([20]; Botrytis cinerea, 1 mM): 86%; concentration from which growth of the primary hypha is limited ([20]; liquid PDB): ≥ 0.1 mM; inhibition at 1000 µM ([21]; 1 mM 4-PBA, time 22 days): 25%; inhibition at 2000 µM ([21]; 2 mM 4-PBA, time 22 days): 62%; inhibition at 5000 µM ([21]; 5 mM 4-PBA, time 22 days): 100%; EC50 [21, 26]: 1650 µM; growth at higher concentrations ([22]; 2 and 5 mM): complete absence of growth for 20 days; inhibition at 1000 µM ([22]; Phytophthora nicotianae, 240 h, 1 mM 4-PBA, time 10 days): 95%; inhibition at 2000 µM ([22]; Phytophthora nicotianae, 240 h, 2 mM 4-PBA, time 10 days): 99%; inhibition at 5000 µM ([22]; Phytophthora nicotianae, 240 h, 5 mM 4-PBA, time 10 days): 100%; EC50 ([22]; Phytophthora nicotianae, 240 h, time 10 days (day control colonized the whole Petri dish)): 0.00024 µM; difference between EC50 calculated for B. cinerea and for P. parasitica ([22]; Table 2 and FIG. 6b): 7 orders of magnitude; times more sensitive to the molecule than B. cinerea [22, 27]: about 12 million; inhibition at 1000 µM ([23]; Fusarium graminearum, 144 h): 48%; inhibition at 2000 µM ([23]; Fusarium graminearum, 144 h): 97%; inhibition at 5000 µM ([23]; Fusarium graminearum, 144 h): 99%; persistence of the molecule [23, 24]: up to 10 days
